Assay results as given in patent publication US9745320B2, “Five-and-six-membered heterocyclic compound, and preparation method, pharmaceutical composition and use thereof” (SHANGHAI CHEMEXPLORER CO., LTD., priority 2013, dated 2017).
Like-named read-outs stand apart in the source and are kept apart here.

Assays:
Type in all cases: biochemical
JAK1 = JAK1 (Homo sapiens, UniProt P23458); assay: JAK 1 enzymatic inhibitory activity IC50 assay (Caliper conversion rate); details: Km ATP, 28° C., 1 hour
JAK1, sequence (P23458 whole entry, species assumed): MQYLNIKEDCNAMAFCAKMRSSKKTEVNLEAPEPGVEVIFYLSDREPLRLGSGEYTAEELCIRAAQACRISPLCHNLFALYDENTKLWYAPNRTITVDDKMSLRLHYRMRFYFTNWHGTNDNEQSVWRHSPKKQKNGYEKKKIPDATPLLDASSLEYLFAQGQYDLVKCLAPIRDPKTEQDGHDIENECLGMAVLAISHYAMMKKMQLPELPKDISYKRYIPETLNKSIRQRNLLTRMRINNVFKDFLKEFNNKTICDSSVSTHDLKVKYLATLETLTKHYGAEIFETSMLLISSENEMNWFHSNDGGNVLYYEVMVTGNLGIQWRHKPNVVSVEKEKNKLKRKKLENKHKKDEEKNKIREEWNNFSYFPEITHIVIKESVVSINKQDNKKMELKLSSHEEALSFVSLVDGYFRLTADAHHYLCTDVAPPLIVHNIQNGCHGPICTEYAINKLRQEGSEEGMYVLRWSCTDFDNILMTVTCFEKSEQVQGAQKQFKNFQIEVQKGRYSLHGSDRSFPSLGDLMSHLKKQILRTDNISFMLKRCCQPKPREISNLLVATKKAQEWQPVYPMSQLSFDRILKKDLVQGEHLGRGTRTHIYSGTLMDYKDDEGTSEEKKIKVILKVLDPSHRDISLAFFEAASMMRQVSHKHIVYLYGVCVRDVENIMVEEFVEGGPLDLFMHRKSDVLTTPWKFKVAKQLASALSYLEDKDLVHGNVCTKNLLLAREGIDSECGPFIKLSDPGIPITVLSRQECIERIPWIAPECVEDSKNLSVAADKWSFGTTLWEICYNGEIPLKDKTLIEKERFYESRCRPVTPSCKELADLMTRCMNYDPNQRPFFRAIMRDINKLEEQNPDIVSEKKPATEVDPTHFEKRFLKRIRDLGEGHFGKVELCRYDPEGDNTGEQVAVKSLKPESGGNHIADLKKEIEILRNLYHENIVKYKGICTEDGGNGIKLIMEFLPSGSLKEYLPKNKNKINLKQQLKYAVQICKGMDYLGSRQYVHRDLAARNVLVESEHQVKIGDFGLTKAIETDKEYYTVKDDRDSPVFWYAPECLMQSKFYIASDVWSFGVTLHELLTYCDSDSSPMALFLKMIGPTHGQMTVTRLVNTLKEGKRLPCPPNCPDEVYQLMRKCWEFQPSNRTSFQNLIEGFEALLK
How it was run: (§1)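 Human JAK1 or JAK2 enzyme was preincubated with graded compound (2% DMSO) in HEPES pH 7.5/Brij-35/DTT buffer (JAK1 also with Triton), then peptide substrate, 10 mM MgCl2 and ATP at Km were added. Reactions ran 1 hour at 28° C; Caliper conversion rate gave inhibition, averaged over two tests, for IC50.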

JAK2 = JAK2 (Homo sapiens, UniProt O60674); assay: JAK 2 enzymatic inhibitory activity IC50 assay (Caliper conversion rate); details: Km ATP, 28° C., 1 hour
JAK2, sequence (O60674 whole entry, species assumed): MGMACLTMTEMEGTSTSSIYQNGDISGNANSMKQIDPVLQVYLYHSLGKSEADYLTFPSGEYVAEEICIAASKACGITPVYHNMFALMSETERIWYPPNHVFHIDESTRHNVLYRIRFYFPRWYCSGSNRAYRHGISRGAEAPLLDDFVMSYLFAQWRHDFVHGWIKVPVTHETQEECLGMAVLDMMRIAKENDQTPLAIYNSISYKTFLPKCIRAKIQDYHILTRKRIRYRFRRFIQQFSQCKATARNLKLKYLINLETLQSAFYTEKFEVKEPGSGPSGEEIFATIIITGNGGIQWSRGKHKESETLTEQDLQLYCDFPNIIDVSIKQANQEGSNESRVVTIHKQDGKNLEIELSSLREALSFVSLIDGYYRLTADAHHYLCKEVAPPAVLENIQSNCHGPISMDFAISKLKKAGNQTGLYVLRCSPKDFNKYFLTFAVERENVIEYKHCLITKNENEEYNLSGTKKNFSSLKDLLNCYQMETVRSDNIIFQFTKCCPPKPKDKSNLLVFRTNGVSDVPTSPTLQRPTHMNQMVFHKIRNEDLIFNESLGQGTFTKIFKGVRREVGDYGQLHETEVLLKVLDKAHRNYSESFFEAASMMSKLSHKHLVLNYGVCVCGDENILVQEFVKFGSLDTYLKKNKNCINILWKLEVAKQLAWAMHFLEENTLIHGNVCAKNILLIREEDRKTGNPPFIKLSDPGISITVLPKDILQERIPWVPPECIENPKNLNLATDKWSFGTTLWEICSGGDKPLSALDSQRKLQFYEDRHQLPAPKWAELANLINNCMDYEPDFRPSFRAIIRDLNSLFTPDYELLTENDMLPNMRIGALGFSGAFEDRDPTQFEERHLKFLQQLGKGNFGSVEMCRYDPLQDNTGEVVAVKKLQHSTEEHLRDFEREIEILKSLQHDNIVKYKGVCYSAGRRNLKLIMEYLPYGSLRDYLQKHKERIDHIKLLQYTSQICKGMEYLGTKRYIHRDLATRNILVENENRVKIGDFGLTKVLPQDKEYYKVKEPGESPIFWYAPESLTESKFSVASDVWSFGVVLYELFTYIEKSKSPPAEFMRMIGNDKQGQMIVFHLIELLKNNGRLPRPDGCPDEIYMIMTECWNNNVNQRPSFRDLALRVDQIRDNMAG
How it was run: as §1

JAK3 = molecular target: T1, JAK3 (Homo sapiens, UniProt P52333); assay: JAK 3 enzymatic inhibitory activity IC50 assay (Caliper conversion rate)
T1 sequence (P52333 1-1124): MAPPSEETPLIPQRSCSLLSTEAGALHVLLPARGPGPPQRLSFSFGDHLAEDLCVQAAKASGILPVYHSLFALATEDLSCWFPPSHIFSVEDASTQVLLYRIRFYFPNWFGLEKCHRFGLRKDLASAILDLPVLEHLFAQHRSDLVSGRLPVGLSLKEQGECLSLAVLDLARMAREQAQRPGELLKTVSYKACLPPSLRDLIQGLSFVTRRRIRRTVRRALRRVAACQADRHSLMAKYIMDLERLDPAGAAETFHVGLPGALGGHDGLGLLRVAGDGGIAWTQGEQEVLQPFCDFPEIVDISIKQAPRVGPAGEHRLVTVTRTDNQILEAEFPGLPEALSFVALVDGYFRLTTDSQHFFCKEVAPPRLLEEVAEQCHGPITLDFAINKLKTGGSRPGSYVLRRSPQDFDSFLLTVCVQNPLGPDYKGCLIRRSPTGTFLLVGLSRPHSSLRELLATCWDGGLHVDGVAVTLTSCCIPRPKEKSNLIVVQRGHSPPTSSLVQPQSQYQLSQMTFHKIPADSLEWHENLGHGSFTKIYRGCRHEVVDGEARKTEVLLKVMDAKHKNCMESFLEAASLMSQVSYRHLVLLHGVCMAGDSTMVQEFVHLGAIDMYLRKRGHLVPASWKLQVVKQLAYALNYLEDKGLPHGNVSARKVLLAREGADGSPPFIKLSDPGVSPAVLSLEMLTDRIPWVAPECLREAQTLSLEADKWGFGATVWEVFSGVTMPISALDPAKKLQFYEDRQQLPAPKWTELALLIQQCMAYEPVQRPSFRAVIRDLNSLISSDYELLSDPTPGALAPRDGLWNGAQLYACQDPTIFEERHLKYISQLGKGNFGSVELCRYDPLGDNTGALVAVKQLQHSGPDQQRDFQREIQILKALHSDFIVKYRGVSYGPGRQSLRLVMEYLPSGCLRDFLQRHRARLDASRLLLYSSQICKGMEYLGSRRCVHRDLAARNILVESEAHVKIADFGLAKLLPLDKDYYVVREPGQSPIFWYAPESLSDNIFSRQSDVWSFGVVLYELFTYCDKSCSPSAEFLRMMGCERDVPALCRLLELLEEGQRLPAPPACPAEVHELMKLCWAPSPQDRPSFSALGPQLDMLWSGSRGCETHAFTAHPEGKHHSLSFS

[1] = Km ATP, 28° C., 1 hour, read-out: JAK 3 enzymatic inhibitory activity IC50

IC50 (JAK1)	IC50 (JAK2)	IC50 (JAK3; [1])	IC50 (JAK3)	Structure (SMILES)
< 50 nM	< 50 nM	50 to 500 nM	–	CCS(=O)(=O)N1CC(CC#N)(n2cc(-c3nc(Nc4ccc(N5CCOCC5)cc4)nc4ccsc34)cn2)C1 [Compound T-07, 2-(1-(Ethylsulfonyl)-3-(4-(2-((4-morpholinophenyl)amino)thieno[3,2-d]pyrimidin-4-yl)-1H-pyrazol-1-yl)azetidin-3-yl)acetonitrile]
< 50 nM	< 50 nM	< 50 nM	–	CCS(=O)(=O)N1CC(CC#N)(n2cc(-c3nc(Nc4cnn(C5CN(CC6CC6)C5)c4)nc4ccsc34)cn2)C1 [Compound T-66, 2-(3-(4-(2-((1-(1-(Cyclopropylmethyl)azetidin-3-yl)-1H-pyrazol-4-yl)amino)thieno[3,2-d]pyrimidin-4-yl)-1H-pyrazol-1-yl)-1-(ethylsulfonyl)azetidin-3-yl)acetonitrile]
< 50 nM	< 50 nM	< 50 nM	–	CCS(=O)(=O)N1CC(CC#N)(n2cc(-c3nc(Nc4cnn(CCO)c4)nc4ccsc34)cn2)C1 [Compound T-51, 2-(1-(Ethylsulfonyl)-3-(4-(2-((1-(2-hydroxyethyl)-1H-pyrazol-4-yl)amino)thieno[3,2-d]pyrimidin-4-yl)-1H-pyrazol-1-yl)azetidin-3-yl)acetonitrile]
< 50 nM	< 50 nM	< 50 nM	–	CCS(=O)(=O)N1CC(CC#N)(n2cc(-c3nc(Nc4cnn(CCCC(=O)N(C)C)c4)nc4ccsc34)cn2)C1 [Compound T-37, 4-(4-((4-(1-(3-(Cyanomethyl)-1-(ethylsulfonyl)azetidin-3-yl)-1H-pyrazol-4-yl)thieno[3,2-d]pyrimidin-2-yl)amino)-1H-pyrazol-1-yl)-N,N-dimethylbutanamide]
50 to 500 nM	< 50 nM	50 to 500 nM	–	CCS(=O)(=O)N1CC(CC#N)(n2cc(-c3nc(Nc4ccc(C#N)cc4)nc4ccsc34)cn2)C1 [Compound T-19, 4-((4-(1-(3-(Cyanomethyl)-1-(ethylsulfonyl)azetidin-3-yl)-1H-pyrazol-4-yl)thieno[3,2-d]pyrimidin-2-yl)amino)benzonitrile]
< 50 nM	< 50 nM	< 50 nM	–	C[C@H](CO)n1cc(Nc2nc(-c3cnn(C4(CC#N)CN(S(C)(=O)=O)C4)c3)c3sccc3n2)cn1 [Compound T-84, (R)-2-(3-(4-(2-((1-(1-Hydroxypropan-2-yl)-1H-pyrazol-4-yl)amino)thieno[3,2-d]pyrimidin-4-yl)-1H-pyrazol-1-yl)-1-(methylsulfonyl)azetidin-3-yl)acetonitrile]
500 to 1000 nM	50 to 500 nM	> 1000 nM	–	Cn1cc(Nc2nc(-c3cnn(C4(CC#N)COC4)c3)c3ccsc3n2)cn1 [Compound T-42, 2-(3-(4-(2-((1-Methyl-1H-pyrazol-4-yl)amino)thieno[2,3-d]pyrimidin-4-yl)-1H-pyrazol-1-yl)oxetan-3-yl)acetonitrile]
500 to 1000 nM	500 to 1000 nM	> 1000 nM	–	CCS(=O)(=O)N1CC(CC#N)(n2cc(-c3nc(Nc4ccnnc4)nc4ccsc34)cn2)C1 [Compound T-47, 2-(1-(Ethylsulfonyl)-3-(4-(2-(pyridazin-4-ylamino)thieno[3,2-d]pyrimidin-4-yl)-1H-pyrazol-1-yl)azetidin-3-yl)acetonitrile]
> 1000 nM	50 to 500 nM	> 1000 nM	–	CCS(=O)(=O)N1CC(CC#N)(n2cc(-c3nc(Nc4cnn(C)c4)nc4cc(Cl)sc34)cn2)C1 [Compound T-68, 2-(3-(4-(6-Chloro-2-((1-methyl-1H-pyrazol-4-yl)amino)thieno[3,2-d]pyrimidin-4-yl)-1H-pyrazol-1-yl)-1-(ethylsulfonyl)azetidin-3-yl)acetonitrile]
50 to 500 nM	< 50 nM	50 to 500 nM	–	CCS(=O)(=O)N1CC(CC#N)(n2cc(-c3nc(Nc4ccccc4)nc4ccoc34)cn2)C1 [Compound T-30, 2-(1-(Ethylsulfonyl)-3-(4-(2-(phenylamino)furo[3,2-d]pyrimidin-4-yl)-1H-pyrazol-1-yl)azetidin-3-yl)acetonitrile]
50 to 500 nM	< 50 nM	50 to 500 nM	–	Cn1cc(Nc2nc(-c3cnn(C4(CC#N)COC4)c3)c3sccc3n2)cn1 [Compound T-43, 2-(3-(4-(2-((1-Methyl-1H-pyrazol-4-yl)amino)thieno[3,2-d]pyrimidin-4-yl)-1H-pyrazol-1-yl)oxetan-3-yl)acetonitrile]
> 1000 nM	> 1000 nM	> 1000 nM	–	CCS(=O)(=O)N1CC(CC#N)(n2cc(-c3nc(NC4CC4)nc4ccsc34)cn2)C1 [Compound T-28, 2-(3-(4-(2-(Cyclopropylamino)thieno[3,2-d]pyrimidin-4-yl)-1H-pyrazol-1-yl)-1-(ethylsulfonyl)azetidin-3-yl)acetonitrile]
< 50 nM	< 50 nM	< 50 nM	–	CCn1cc(Nc2nc(-c3cnn(C4(CC#N)CN(S(=O)(=O)CC)C4)c3)c3sccc3n2)cn1 [Compound T-40, 2-(3-(4-(2-((1-Ethyl-1H-pyrazol-4-yl)amino)thieno[3,2-d]pyrimidin-4-yl)-1H-pyrazol-1-yl)-1-(ethylsulfonyl)azetidin-3-yl)acetonitrile]
< 50 nM	< 50 nM	50 to 500 nM	–	CCS(=O)(=O)N1CC(CC#N)(n2cc(-c3nc(Nc4ccc(-n5cnnn5)cc4)nc4ccsc34)cn2)C1 [Compound T-59, 2-(3-(4-(2-((4-(1H-Tetrazol-1-yl)phenyl)amino)thieno[3,2-d]pyrimidin-4-yl)-1H-pyrazol-1-yl)-1-(ethylsulfonyl)azetidin-3-yl)acetonitrile]
50 to 500 nM	< 50 nM	50 to 500 nM	–	CCS(=O)(=O)N1CC(CC#N)(n2cc(-c3nc(Nc4ccc5[nH]ncc5c4)nc4ccsc34)cn2)C1 [Compound T-57, 2-(3-(4-(2-((1H-Indazol-5-yl)amino)thieno[3,2-d]pyrimidin-4-yl)-1H-pyrazol-1-yl)-1-(ethylsulfonyl)azetidin-3-yl)acetonitrile]
50 to 500 nM	< 50 nM	500 to 1000 nM	–	CCC(=O)N1CC(CC#N)(n2cc(-c3nc(Nc4cnn(C)c4)nc4ccsc34)cn2)C1 [Compound T-46, 2-(3-(4-(2-((1-Methyl-1H-pyrazol-4-yl)amino)thieno[3,2-d]pyrimidin-4-yl)-1H-pyrazol-1-yl)-1-propionylazetidin-3-yl)acetonitrile]
< 50 nM	< 50 nM	50 to 500 nM	–	C[C@@H](CO)n1cc(Nc2nc(-c3cnn(C4(CC#N)COC4)c3)c3sccc3n2)cn1 [Compound T-83, (S)-2-(3-(4-(2-((1-(1-Hydroxypropan-2-yl)-1H-pyrazol-4-yl)amino)thieno[3,2-d]pyrimidin-4-yl)-1H-pyrazol-1-yl)oxetan-3-yl)acetonitrile]
> 1000 nM	> 1000 nM	–	> 1000 nM	CCS(=O)(=O)N1CC(CC#N)(n2cc(-c3cc(Nc4ccccc4)nc4ccnn34)cn2)C1 [Compound T-55, 2-(1-(Ethylsulfonyl)-3-(4-(5-(phenylamino)pyrazolo[1,5-a]pyrimidin-7-yl)-1H-pyrazol-1-yl)azetidin-3-yl)acetonitrile]
50 to 500 nM	< 50 nM	50 to 500 nM	–	CCS(=O)(=O)N1CC(CC#N)(n2cc(-c3nc(Nc4cnn(C5CN(C)C5)c4)nc4ccsc34)cn2)C1 [Compound T-54, 2-(1-(Ethylsulfonyl)-3-(4-(2-((1-(1-methylazetidin-3-yl)-1H-pyrazol-4-yl)amino)thieno[3,2-d]pyrimidin-4-yl)-1H-pyrazol-1-yl)azetidin-3-yl)acetonitrile]
< 50 nM	< 50 nM	50 to 500 nM	–	CCS(=O)(=O)N1CC(CC#N)(n2cc(-c3nc(Nc4ccc(S(C)(=O)=O)cc4)nc4ccsc34)cn2)C1 [Compound T-12, 2-(1-(Ethylsulfonyl)-3-(4-(2-((4-(methylsulfonyl)phenyl)amino)thieno[3,2-d]pyrimidin-4-yl)-1H-pyrazol-1-yl)azetidin-3-yl)acetonitrile]
